# Source: PubChem BioAssay AID602356 (Sanford-Burnham Center for Chemical Genomics, 2012)
# Values joined by “and” are separate entries in the source; they are usually repeats but may differ in a detail not shown here. Identical values can stand only once. Active and inactive are the calls of the source. How the calls were made is not given here.
# Target: Neurotensin receptor type 1 (Homo sapiens) (UniProt P30989)
# Assay: NTR1 agonists in analog series, SAR follow-up, imaging, image-based, set 3 (AID 602356)
# Conditions: NTR1 image-based agonist assay, cellular imaging
# Chain of Neurotensin receptor type 1 (Homo sapiens) (P30989 whole entry, looked up): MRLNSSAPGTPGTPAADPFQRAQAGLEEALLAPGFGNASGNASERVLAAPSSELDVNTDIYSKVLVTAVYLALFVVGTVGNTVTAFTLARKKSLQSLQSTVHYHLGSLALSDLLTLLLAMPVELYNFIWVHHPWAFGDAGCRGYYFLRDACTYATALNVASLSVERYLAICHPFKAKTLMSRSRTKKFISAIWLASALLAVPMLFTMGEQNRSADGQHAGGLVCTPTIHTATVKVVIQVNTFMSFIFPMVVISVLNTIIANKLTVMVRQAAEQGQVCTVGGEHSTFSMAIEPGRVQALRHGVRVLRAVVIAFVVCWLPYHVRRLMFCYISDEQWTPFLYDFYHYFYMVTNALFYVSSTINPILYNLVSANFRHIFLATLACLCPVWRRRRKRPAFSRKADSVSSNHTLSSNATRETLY
row,EC50,Structure (SMILES)
1,16.6 µM,CCCc1nc(N2CCN(c3ccccc3OC)CC2)c2cc(OC)c(OC)cc2n1
2,> 80 µM (inactive),COc1ccc(Cn2cc3c(-c4ccc(OC)cc4)nnc-3c3ccccc32)cc1
3,> 80 µM (inactive),COc1cc2c3nnc(-c4ccccc4)c-3cn(Cc3ccc(C)cc3)c2cc1OC
4,6.08 µM,CCOc1ccccc1N1CCN(c2nc(C3CC3)nc3cc(OC)c(OC)cc23)CC1
5,13 µM,CCOc1ccc(-c2nnc3c4cc(OC)c(OC)cc4n(Cc4ccc(C)cc4)cc2-3)cc1
6,16.6 µM,COc1cc2c3nnc(-c4ccccc4)c-3cn(Cc3ccc(F)cc3)c2cc1OC
7,> 80 µM (inactive),CCn1cc2c(-c3ccc(F)cc3)nnc-2c2cc(OC)c(OC)cc21
8,2.31 µM and 4.47 µM,COc1cccc(OC)c1-c1nc(C(=O)N[C@@H](CC(C)C)C(=O)O)cn1-c1cccc2ccccc12
9,inactive,CCc1nc(N2CCN(c3ccccc3OC)CC2)c2cc(OC)c(OC)cc2n1
10,inactive,COc1ccc(-c2nnc3c4ccccc4n(Cc4ccc(F)cc4)cc2-3)cc1
11,> 80 µM (inactive),COc1ccccc1-c1nc(C(=O)N[C@@H](CC(C)C)C(=O)O)cn1-c1ccnc2ccccc12
12,> 80 µM (inactive),COc1ccc(-c2nc(C(=O)N[C@@H](CC(C)C)C(=O)O)cn2-c2ccnc3cc(Cl)ccc23)c(OC)c1
13,> 80 µM (inactive),COc1cc2nc(C3CC3)nc(N3CCNCC3)c2cc1OC
14,> 80 µM (inactive),CCOc1cc2nc(-c3ccc(OC)c(OC)c3)nc(N3CCN(c4ccccc4F)CC3)c2cc1OC
15,inactive,COc1ccc(-c2nnc3c4ccccc4n(Cc4ccc(OC(F)(F)F)cc4)cc2-3)cc1
16,1.35 µM,COc1cccc(OC)c1-c1cc(C(=O)N[C@@H](CC(C)C)C(=O)OC(C)(C)C)nn1-c1ccnc2cc(Cl)ccc12
17,inactive,COc1cc2nc(CCN3CCN(c4ccccc4OC)CC3)nc(N3CCN(c4ccccc4OC)CC3)c2cc1OC
18,> 80 µM (inactive),COc1cc2nc(-c3ccccc3)nc(N3CCN(c4ccccc4)CC3)c2cc1OC
19,3.95 µM,COc1cc2c3nnc(-c4ccc(F)cc4)c-3cn(Cc3ccccc3C)c2cc1OC
20,5.17 µM,CC(C)C[C@H](NC(=O)c1cn(-c2ccnc3cc(Cl)ccc23)c(-c2c(Cl)cccc2Cl)n1)C(=O)O
21,> 80 µM (inactive),COc1cc2ncnc(N3CCN(c4ccccc4OC)CC3)c2cc1OC
22,17 µM,COc1ccc(-c2nnc3c4cc(OC)c(OC)cc4n(Cc4ccccc4)cc2-3)cc1
23,> 80 µM (inactive),COc1cccc(OC)c1-c1cc(C(=O)O)nn1-c1ccnc2cc(Cl)ccc12

row,EC50,Structure (SMILES)
1,4.1 µM,COc1ccc2nc(C3CC3)nc(N3CCN(c4ccccc4OC)CC3)c2c1
2,16.2 µM,COc1cc2c3nnc(-c4ccc(C)c(C)c4)c-3cn(Cc3ccc(F)cc3)c2cc1OC
3,> 80 µM (inactive),COc1ccccc1-c1nc(C(=O)N[C@@H](CC(C)C)C(=O)O)cn1-c1ccncc1
4,15.1 µM,COc1cc2nc(CC(C)C)nc(N3CCN(c4ccccc4OC)CC3)c2cc1OC
5,inactive,COc1cccc(OC)c1-c1nc(C(=O)NC2(C(=O)O)C3CC4CC(C3)CC2C4)cn1-c1ccnc2cc(Cl)ccc12 (stereo not given)
6,12.2 µM,COc1cc2nc(C3CCC3)nc(N3CCN(c4ccccc4Cl)CC3)c2cc1OC
7,> 80 µM (inactive),COc1cc2c3nnc(-c4ccc(F)cc4)c-3cn(Cc3ccc(N(C)C)cc3)c2cc1OC
8,0.232 µM,COc1cccc(OC)c1-c1cc(C(=O)N[C@@H](CC(C)C)C(=O)O)nn1-c1ccnc2cc(Cl)ccc12
9,7.03 µM,C=Cc1nc(N2CCN(c3ccccc3OC)CC2)c2cc(OC)c(OC)cc2n1
10,12.1 µM,COc1cc2nc(C3CCC3)nc(N3CCN(c4ccccc4)CC3)c2cc1OC
11,> 80 µM (inactive),COc1cccc(OC)c1-c1nc(C(=O)O)cn1-c1ccncc1
12,1.44 µM,Cc1ccc(-c2nnc3c4cc5c(cc4n(Cc4ccccc4)cc2-3)OCO5)cc1C
13,11.1 µM,COc1cc2c3nnc(-c4ccc(F)cc4)c-3cn(Cc3ccc(F)cc3)c2cc1OC
14,> 80 µM (inactive),COc1ccc(-c2nnc3c4cc(OC)c(OC)cc4n(Cc4ccc(F)cc4)cc2-3)cc1
15,> 80 µM (inactive),COc1cc2nc(C)nc(N3CCN(c4ccccc4OC)CC3)c2cc1OC
16,> 80 µM (inactive),COc1cc2nc(-c3ccccc3)nc(N3CCN(c4ccc(F)cc4)CC3)c2cc1OC
17,inactive,COc1ccccc1N1CCN(c2nc(C3CCC3)nc3ccccc23)CC1
18,inactive,COc1ccc2c(N3CCN(c4ccccc4OC)CC3)nc(C3CCC3)nc2c1
19,11.2 µM,COc1ccc2c3nnc(-c4ccc(C)cc4)c-3cn(Cc3ccc(F)cc3)c2c1
20,12.3 µM,COc1cc2c3nnc(-c4ccc(F)cc4)c-3cn(Cc3ccc(OC(F)(F)F)cc3)c2cc1OC
21,5.79 µM,COc1cc2nc(C3CCCC3)nc(N3CCN(c4ccccc4OC)CC3)c2cc1OC
22,inactive,COc1cc2nc(C3CC3)nc(N3CCN(Cc4ccc(C)cc4)CC3)c2cc1OC
